Source: paper PMC10096344 (Molecules, 2023)

Legend:
[1] = tested on: P. aeruginosa (ATCC27853); experiment: Anti-bacterial activity, inhibition zone diameter on agar; assay type: cell-based, Pseudomonas aeruginosa; conditions: for growth inhibition / bactericidal activity (inhibition zone): reference antibiotic 10 μg/mL
Method: P. aeruginosa (ATCC27853) was cultured in 3 mL LB culture medium, shaken at 220 rpm for 12 h at 37 °C and diluted to 1 × 10^6 CFU/mL. The culture disk was coated with 1% agar, and 100 μL bacterial suspension was added to the agar in the disk evenly. […] LP4C or reference antibiotics were then added in each hole. The disk was cultured for 12–16 h at 37 °C; the result was then observed and the inhibition zone diameter was measured.

[2] = tested on: P. aeruginosa (ATCC27853) biofilm; experiment: Bacterial biofilm formation (FITC staining, crystal violet staining); assay type: cell-based, Pseudomonas aeruginosa; conditions: with 10 μg/mL LP4C
Method: The bacterial biofilm growth and measurement was performed according to our previously reported method. Briefly, P. aeruginosa (ATCC27853) was cultured in the tube with nutrient broth containing 2% (w/v) glucose, shaken at 220 rpm for 12 h at 37 °C. The suspension was diluted to 1 × 10^6 CFU/mL and added to 96-well plates, the bacteria was cultured for 24 h at 37 °C for biofilm growth and the planktonic bacterial of each well was removed by PBS rinsing three times. To observe the biofilm formation, the fluorescein isothiocyanate (FITC) was added into the plates and incubated for 2 h at 37 °C; the labeled biofilm was then washed by PBS and visualized under the fluorescence microscopy (Olympus CKX53, Tokyo, Japan). The measurement of biofilm was performed according to the following procedure: the mature biofilm was fixed with 150 μL methanol and left to air dry, then stained with 150 μL of 1% (w/v) crystal violet solution for 15 min at room temperature. The plate was rinsed with PBS three times and 150 μL of glacial acetic acid was added to each well; the optical density was measured at 630 nm optical density using a microplate reader (Bio-Tek ELX800, Berten, USA).

[3] = tested on: P. aeruginosa PAO1 strain; set-up: method as in PMID 21852522; conditions: cited from earlier work
[4] = supplementation 1, 10 and 100 μM

C[C@@H](O)[C@H]1C(=O)N2C(C(=O)O)=C(SCCN=CN)C[C@H]12 [imipenem]
zone of inhibition at 10 µg/mL ([1]; Pseudomonas aeruginosa, ATCC27853, 10 μg/mL, value printed in Figure 1A): 29.4 mm | growth inhibition / bactericidal activity (inhibition zone) [1]: could inhibit the growth of P. aeruginosa obviously

CC(C)(O/N=C(\C(=O)N[C@@H]1C(=O)N2C(C(=O)[O-])=C(C[n+]3ccccc3)CS[C@H]12)c1csc(N)n1)C(=O)O [ceftazidime]
growth inhibition / bactericidal activity (inhibition zone) [1]: no bactericidal activity

O=c1ccn([C@@H]2O[C@H](CO[P@@](=O)(O)O[P@@](=O)(O)OP(=O)(O)O)[C@@H](O)[C@H]2O)c(=O)[nH]1 (stereo in doubt) [UTP, uridine triphosphate, reference compound]
reversal of biofilm formation impaired by LP4C [2, 4]: could reverse the biofilm formation ability impaired by 10 μg/mL LP4C

O=c1ccn([C@@H]2O[C@H](COP(=O)(O)O)[C@@H](O)[C@H]2O)c(=O)[nH]1 [UMP, uridine monophosphate, reference compound]
reversal of biofilm formation impaired by LP4C [2, 4]: could reverse the biofilm formation ability impaired by 10 μg/mL LP4C

O=c1cc[nH]c(=O)[nH]1 [uracil, reference compound]
reversal of biofilm formation impaired by LP4C ([2]; supplementation 10 and 100 μM): could reverse the biofilm formation ability impaired by 10 μg/mL LP4C

CC(C)=CC[C@@H](O)C1=CC(=O)c2c(O)ccc(O)c2C1=O [shikonin]
concentration that inhibits biofilm formation [3]: 200 µM
